Measurements published in PubChem BioAssay AID1337 (NMMLSC, 2008).

These compounds were tested against Ras-related protein Rab-2A (Canis lupus familiaris) (UniProt P61105) (assay: Rab2 wildtype GTP-binding inhibitors, dose response, biochemical, GST-Rab2 beads, Bodipy-FL-GTP, flow cytometry, multiplex (AID 1337)). Details: Bead-bound GST-Rab2 wt.
In the case of `OC(CNCCC1C=Nc2ccccc21)Cn1c2ccc(Cl)cc2c2cc(Cl)ccc21` (stereo not drawn), the EC50 is reported as 26.3 µM.
For `O=[N+]([O-])c1cc2oc3c(c2c(C=NCc2ccccc2)c1O)CCCC3`, the EC50 was 4.02 µM.
In the case of `COC(=O)c1c(N2C(=O)[C@H]3[C@@H](C2=O)[C@]2(C(=O)Nc4c(C)cc(C)cc42)N2CCC[C@@H]32)sc(C)c1C`, the EC50 is reported as 1.99 µM.
